The source of these data is patent US12122787B2, “Fused pyridone compound, and preparation method therefor and use thereof” (SHANGHAI JEMINCARE PHARMACEUTICALS CO., LTD, priority 2019, dated 2024).

Series [1] relates to phosphorylated ERK (Thr202/Tyr204) in NCI-H358 cells expressing mutant RAS(G12C). Nature of the series: Inhibition of RAS-mediated signal transduction: phosphorylated ERK ELISA in NCI-H358 cells. The series is classed as cell-based. To be noted: NCI-H358 cells, 2 hours of treatment, pERK normalized by Janus Green B; read-out: p-ERK IC50 (NCI H358).
The nature of series [2]: In vivo pharmacokinetic evaluation in mice by intravenous injection and oral administration. Particulars: male ICR mice. Here is the method: In this experimental embodiment, in vivo pharmacokinetic evaluation was performed in mice by intravenous injection and oral administration.
Experimental methods and conditions: Male ICR mice were given a single dose of 1 mg/Kg (intravenous injection, solvent 5% DMSO+15% Solutol+80% saline) and 5 mg/Kg (intragastric administration, solvent 1% Tween80/2% HPMC/97% water) of the compound to be tested, respectively; 5 min, 15 min, 30 min, 1 hour, 2 hours, 4 hours, 6 hours, 8 hours, 24 hours after administration, blood was collected from the orbital vein, and each sample was collected at approximately 0.20 mL, anticoagulated with sodium heparin, placed on ice after collection, and centrifuged within 1 hour to separate the plasma for measurement. Plasma drug concentration in plasma was detected by liquid chromatography tandem mass spectrometry (LC/MS/MS) to calculate pharmacokinetic parameters.

Series [3] relates to NCI-H358 cells expressing KRAS-G12C. Briefly: Growth inhibition of tumor cell line expressing KRAS-G12C (Cell Titer Glo), NCI-H358. The series is classed as cell-based. To be noted: NCI-H358, 72 hours. A digest of the protocol: (§1)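 NCI-H358 (RPMI, 10% FBS) and MIA PaCa2 (DMEM, 10% FBS, 2.5% horse serum) seeded at 1000 and 800 cells/well, adhered overnight, then treated 72 h at 0.1% DMSO. ATP by Cell Titer Glo; GI50 fitted from 9 concentrations at ⅓-fold dilution versus DMSO control.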
A general note: In ATP-based viability assays light output follows the ATP content of the culture.

The test system of series [4] is MIA PaCa2 cells expressing KRAS-G12C. Briefly: Growth inhibition of tumor cell line expressing KRAS-G12C (Cell Titer Glo), MIA PaCa2. It is filed as cell-based. Particulars: MIA-Paca2, 72 hours. The gist of the method: as §1
Setting [5] is: intragastric administration 5 mg/kg vs intravenous 1 mg/kg.
Setting [6] is: intragastric administration 5 mg/kg, plasma.
The mark [7] stands for this setting: intravenous administration 1 mg/kg, plasma.
Setting [8] is: mouse, po, intragastric administration 5 mg/kg, plasma.
[9] abbreviates: mouse, intravenous administration 1 mg/kg, plasma.

Usually IC50 stands for the concentration that inhibits the measured activity by half. For orientation: Cmax means the peak of the concentration-time curve. For orientation: GI50 means the concentration that inhibits growth by half. Low readings indicate more potent growth inhibition, high ones less potent growth inhibition. The term bioavailability denotes dose-corrected exposure relative to a reference, in per cent. A high value points to good availability. Usually AUC(0-inf) stands for the area under the concentration-time curve extrapolated to infinity. The term half-life denotes the time needed for the level to fall by half in the phase considered. The low end stands for rapid decline, the high end for slow decline.

Structures are written as SMILES. Like-named read-outs stand apart in the source and are kept apart here.

Regarding `C=CC(=O)N1C[C@@H]2C(=O)N(CCN(C)C)c3c(c4cc(Cl)c(-c5c(F)cccc5OC)c(F)c4n(-c4c(C)ccnc4C(C)C)c3=O)N2C[C@H]1C` (atropisomer, axis not shown) [Compound 27C], the IC50 in series [1] stood at 4 nM. Moreover, in series [2] (setting [5]), the “F (%)” value is listed as 20.30%. In series [2] (setting [6]), the “AUCinf” value amounted to 526.88 ng·h/mL, the “Cmax” value is 133.67 ng/mL and the “T1/2” value turned out to be 1.78 h. Moreover, in series [2] (setting [7]), the “AUCinf” value amounted to 519.01 ng·h/mL, the “Cl” value turned out to be 32.11 mL/min/kg, the “T1/2” value amounted to 1.76 h and the “Vz” value came to 4.89344 L/kg. For the same compound, the GI50 in series [3] was 5 nM. This compound showed a GI50 in series [4] of 3 nM.
In turn, `C=CC(=O)N1CCN(c2nc(=O)n(-c3c(C)ccnc3C(C)C)c3nc(-c4c(O)cccc4F)c(F)cc23)[C@@H](C)C1` [AMG 510] came in with a bioavailability in series [2] (mouse, plasma, oral, intragastric administration 5 mg/kg vs intravenous 1 mg/kg) of 17.6%. In series [2] (setting [8]), the AUC(0-inf) worked out at 155 ng·h/mL and the half-life was 0.57 h. For the same compound, the Cmax in series [2] (mouse, po, intragastric administration 5 mg/kg, plasma, read-out: Cmax) amounted to 177 ng/mL. In series [2] (setting [9]), this compound gave an AUC(0-inf) of 176 ng·h/mL, a clearance of 94.6 mL/min/kg and a half-life of 0.26 h. Further, in series [2] (mouse, intravenous administration 1 mg/kg, plasma, read-out: Vz), the Vd was 2.16 L/kg.
`C=CC(=O)N1CC2COc3c(c4cc(F)c(-c5c(O)cccc5F)c(F)c4n(-c4c(C)ccnc4C(C)C)c3=O)N2CC1C` (single isomer, unassigned) [Compound 3B-2]: in series [1], the IC50 turned out to be 6 nM. For the same compound, the “F (%)” value in series [2] (setting [5]) came out at 17.01%. Moreover, in series [2] (setting [6]), the “AUCinf” value came out at 1984.18 ng·h/mL, the “Cmax” value is on record as 746.67 ng/mL and the “T1/2” value was determined as 3.96 h. In series [2] (setting [7]), the “AUCinf” value was found to be 2333.44 ng·h/mL, the “Cl” value is 7.14 mL/min/kg, the “T1/2” value came to 5.99 h and the “Vz” value worked out at 3.7066 L/kg. The compound also displayed a 50% growth inhibitory concentration (GI50) in series [3] of 5 nM. The GI50 in series [4] is 31 nM.
